“And” between values parts separate entries of the source, which are not always exact repeats. Equal entries are not always repeated. Toxic doses and inconclusive results are not listed. No stated cut-off is given here; in the data, active means T/C of 150% or more; inactive means T/C below 125%.
System: L1210 leukemia ip in BDF1 mice, survival T/C
Assay: NCI In Vivo Anticancer Drug Screen. Data for tumor model L1210 Leukemia (intraperitoneal) in B6D2F1 (BDF1) mice
Settings: endpoint: mean survival time, higher = longer survival
In short: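 Mice bearing the transplanted tumor received compound or vehicle. Survival of the treated group was divided by that of the vehicle-treated control group to give the ratio.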

[1] = dose: 100.0 mg/kg/injection, schedule: Q01DX001 (ip), vehicle: saline
[2] = dose: 200.0 mg/kg/injection, schedule: Q01DX001 (ip), vehicle: saline
[3] = dose: 400.0 mg/kg/injection, schedule: Q01DX001 (ip), vehicle: saline
[4] = dose: 100.0 mg/kg/injection, schedule: Q01DX001 (ip), vehicle: Klucel (hydroxypropylcellulose) (HPC)
[5] = dose: 100.0 mg/kg/injection, schedule: Q01DX009 (ip), vehicle: saline with Tween-80
[6] = dose: 200.0 mg/kg/injection, schedule: Q01DX001 (ip), vehicle: Klucel (hydroxypropylcellulose) (HPC)
[7] = dose: 200.0 mg/kg/injection, schedule: Q01DX009 (ip), vehicle: saline with Tween-80
[8] = dose: 400.0 mg/kg/injection, schedule: Q01DX001 (ip), vehicle: Klucel (hydroxypropylcellulose) (HPC)
[9] = dose: 100.0 mg/kg/injection, schedule: Q04DX003 (ip), vehicle: saline with Tween-80
[10] = dose: 200.0 mg/kg/injection, schedule: Q04DX003 (ip), vehicle: saline with Tween-80
[11] = dose: 400.0 mg/kg/injection, schedule: Q04DX003 (ip), vehicle: saline with Tween-80
[12] = dose: 100.0 mg/kg/injection, schedule: Q01DX001 (ip), vehicle: other
[13] = dose: 400.0 mg/kg/injection, schedule: Q01DX001 (ip), vehicle: other
[14] = dose: 100.0 mg/kg/injection, schedule: Q01DX009 (ip), vehicle: Klucel (hydroxypropylcellulose) (HPC)
[15] = dose: 100.0 mg/kg/injection, schedule: Q04DX003 (ip), vehicle: Klucel (hydroxypropylcellulose) (HPC)
[16] = dose: 200.0 mg/kg/injection, schedule: Q01DX009 (ip), vehicle: Klucel (hydroxypropylcellulose) (HPC)
[17] = dose: 200.0 mg/kg/injection, schedule: Q04DX003 (ip), vehicle: Klucel (hydroxypropylcellulose) (HPC)
[18] = dose: 50.0 mg/kg/injection, schedule: Q01DX009 (ip), vehicle: saline with Tween-80
[19] = dose: 50.0 mg/kg/injection, schedule: Q01DX001 (ip), vehicle: saline
[20] = dose: 400.0 mg/kg/injection, schedule: Q01DX009 (ip), vehicle: Klucel (hydroxypropylcellulose) (HPC)
[21] = dose: 400.0 mg/kg/injection, schedule: Q04DX003 (ip), vehicle: Klucel (hydroxypropylcellulose) (HPC)

Measured: T/C

CC(=O)c1cc(C)c(C)c(C)c1
inactive: [1] 96 % of control | [2] 96 % of control | [3] 91 % of control

O=C(c1ccccc1)C1(c2ccccc2)OC1(C(=O)c1ccccc1)c1ccccc1 (centres undefined)
inactive: [4] 94 % of control | [5] 92 % of control | [6] 94 % of control | [7] 101 % of control | [8] 87 % of control | dose: 400.0 mg/kg/injection, schedule: Q01DX009 (ip), vehicle: saline with Tween-80 95 % of control

CCC(CC)OC(=O)c1cc([N+](=O)[O-])cc([N+](=O)[O-])c1
inactive: [9] 91 % of control | [10] 87 % of control | [11] 94 % of control

C/C=C1/CC(C)C(O)(CO)C(=O)OCC2=CCN3CCC(OC1=O)C23 (centres undefined)
inactive: dose: 75.0 mg/kg/injection, schedule: Q01DX001 (ip), vehicle: carboxymethylcellulose (CMC) 100 % of control

c1ccc(NN(CN(Nc2ccccc2)c2ccccc2)c2ccccc2)cc1
inactive: [12] 95 % of control | [13] 89 % of control

Cc1n[nH]c(C)c1N=NN1CCOCC1
inactive: dose: 10.0 mg/kg/injection, schedule: Q01DX001 (ip), vehicle: saline 100 % of control and 107 % of control | dose: 20.0 mg/kg/injection, schedule: Q01DX001 (ip), vehicle: saline 107 % of control and 124 % of control | dose: 30.0 mg/kg/injection, schedule: Q01DX001 (ip), vehicle: saline 105 % of control

CC(Br)(C(=O)O)C(Br)c1ccccc1 (centres undefined)
inactive: [9] 90 % of control | [10] 95 % of control | [11] 88 % of control

NC(=S)N/N=C\C(=N/NC(N)=S)C(O)CO (centres undefined)
inactive: dose: 75.0 mg/kg/injection, schedule: Q01DX001 (ip), vehicle: saline 97 % of control | dose: 150.0 mg/kg/injection, schedule: Q01DX001 (ip), vehicle: saline 101 % of control

C=CCOP(=O)(OCC=C)OCC=C
inactive: dose: 50.0 mg/kg/injection, schedule: Q01DX009 (ip), vehicle: Klucel (hydroxypropylcellulose) (HPC) 97 % of control | dose: 50.0 mg/kg/injection, schedule: Q04DX003 (ip), vehicle: Klucel (hydroxypropylcellulose) (HPC) 99 % of control | [14] 97 % of control | [15] 91 % of control | [16] 98 % of control | [17] 93 % of control

[O-][n+]1ccc(Cl)c2ccsc21
inactive: [18] 102 % of control | [5] 96 % of control | [9] 103 % of control | [7] 101 % of control | [10] 97 % of control | [11] 98 % of control

COc1nc(=O)n(C2CCCO2)cc1C (centres undefined)
inactive: [19] 95 % of control | [1] 95 % of control | [2] 104 % of control | [3] 98 % of control

CCCCCCCCCCc1ccccc1
inactive: dose: 12.5 mg/kg/injection, schedule: Q04DX002 (ip), vehicle: saline with Tween-80 100 % of control | dose: 25.0 mg/kg/injection, schedule: Q04DX002 (ip), vehicle: saline with Tween-80 97 % of control | dose: 50.0 mg/kg/injection, schedule: Q04DX002 (ip), vehicle: saline with Tween-80 93 % of control | dose: 200.0 mg/kg/injection, schedule: Q04DX002 (ip), vehicle: saline with Tween-80 112 % of control

COC(=O)c1ccc(N(C)CCC(=O)COC(C)=O)cc1
inactive: [1] 103 % of control | [2] 97 % of control | [3] 95 % of control

CC(=O)c1cccc(NC(=O)N(C)Cc2ccccc2)c1
inactive: [14] 109 % of control | [16] 100 % of control | [20] 112 % of control

CC1=NCCN1CCN=C(N)CCl
inactive: dose: 12.5 mg/kg/injection, schedule: Q04DX002 (ip), vehicle: saline 107 % of control | dose: 25.0 mg/kg/injection, schedule: Q01DX009 (ip), vehicle: saline 111 % of control | dose: 25.0 mg/kg/injection, schedule: Q04DX002 (ip), vehicle: saline 91 % of control | dose: 50.0 mg/kg/injection, schedule: Q01DX009 (ip), vehicle: saline 101 % of control | dose: 50.0 mg/kg/injection, schedule: Q04DX002 (ip), vehicle: saline 91 % of control

O=C(NC(c1ccccc1)c1ccccc1)c1ccccc1
inactive: dose: 25.0 mg/kg/injection, schedule: Q01DX009 (ip), vehicle: saline with Tween-80 88 % of control | dose: 25.0 mg/kg/injection, schedule: Q04DX003 (ip), vehicle: saline with Tween-80 97 % of control | [19] 97 % of control | [18] 88 % of control | dose: 50.0 mg/kg/injection, schedule: Q04DX003 (ip), vehicle: saline with Tween-80 94 % of control | [1] 91 % of control | [5] 88 % of control | [9] 89 % of control

CSC(N)=Nc1ccccc1
inactive: dose: 87.5 mg/kg/injection, schedule: Q01DX009 (ip), vehicle: saline 96 % of control | dose: 175.0 mg/kg/injection, schedule: Q01DX009 (ip), vehicle: saline 100 % of control

[CH3][Sn]([CH3])([CH3])[Cl]
inactive: dose: 0.12 mg/kg/injection, schedule: Q04DX002 (ip), vehicle: saline 108 % of control | dose: 0.25 mg/kg/injection, schedule: Q04DX002 (ip), vehicle: saline 105 % of control | dose: 0.5 mg/kg/injection, schedule: Q04DX002 (ip), vehicle: saline 108 % of control

O=c1[nH]cc(CC(F)C(F)(F)F)c(=O)[nH]1 (centres undefined)
inactive: dose: 60.0 mg/kg/injection, schedule: Q01DX001 (ip), vehicle: DMSO 91 % of control | dose: 120.0 mg/kg/injection, schedule: Q01DX001 (ip), vehicle: DMSO 105 % of control

O=C(O)c1nnn(Cc2ccccc2)c1C(=O)O
inactive: dose: 100.0 mg/kg/injection, schedule: Q04DX002 (ip), vehicle: saline 104 % of control | dose: 200.0 mg/kg/injection, schedule: Q04DX002 (ip), vehicle: saline 104 % of control | dose: 400.0 mg/kg/injection, schedule: Q04DX002 (ip), vehicle: saline 96 % of control

CC(C)N1C(=O)c2cccc3c(Br)ccc(c23)C1=O
inactive: [15] 96 % of control | [17] 97 % of control

CC(Cl)(/N=N\C(C)(Cl)c1ccc(Cl)cc1)c1ccc(Cl)cc1 (centres undefined)
inactive: [4] 96 % of control | [14] 92 % of control | [15] 103 % of control | [6] 92 % of control | [16] 106 % of control | [17] 103 % of control | [8] 96 % of control | [20] 98 % of control | [21] 93 % of control

CC(=O)Nc1ccc(S(=O)(=O)O)c(OC(C)=O)c1
inactive: [1] 100 % of control | [2] 93 % of control | [3] 114 % of control

CC(=O)Nc1ccccc1C#N
inactive: dose: 100.0 mg/kg/injection, schedule: Q04DX003 (ip), vehicle: saline sonified 104 % of control | dose: 200.0 mg/kg/injection, schedule: Q04DX003 (ip), vehicle: saline sonified 101 % of control | dose: 400.0 mg/kg/injection, schedule: Q04DX003 (ip), vehicle: saline sonified 97 % of control

Cc1cccc2ccc3ccc4ccccc4c3c12
inactive: [9] 96 % of control | [10] 89 % of control | [11] 92 % of control

Cc1c(O)ccc2c1OCC2=O
inactive: [4] 91 % of control | [15] 104 % of control | [6] 94 % of control | [17] 98 % of control | [8] 98 % of control | [21] 93 % of control

CC(=O)c1cccc(NC(=O)c2ccc(C(=O)Nc3cccc(C(C)=O)c3)cc2)c1
inactive: [12] 104 % of control | dose: 200.0 mg/kg/injection, schedule: Q01DX001 (ip), vehicle: other 102 % of control | [13] 89 % of control

COc1ccc(C(=O)N/N=C/c2ccccc2OC)cc1
inactive: [14] 92 % of control | [16] 100 % of control | [20] 96 % of control

Reference: PubChem BioAssay AID248 (DTP/NCI, 2004)
